Results: PubChem BioAssay AID1963964 (Molecular Pharmacology Branch, DTP, NCI, 2024)

Tested on: 997726-040-R-J2-PDC tumor spheroids, viability
Assay: Anticancer human tumor 997726-040-R-J2-PDC patient-derived squamous cell lung carcinoma cell line growth inhibition [PI3K]
Conditions: spheroids with HUVEC and MSC; for IC50: curve of first compound; for viability, T/C: stronger effect = lower value
Text: Combinatorial screen of targeted agents with the PI3K inhibitors inavolisib, alpelisib, duvelisib, and copanlisib in multi-cell type tumor spheroids
A high-throughput screen of multi-cell type tumor spheroids was designed to identify active combinations of targeted small molecules and PI3K pathway inhibitors. Complex spheroids include a stromal component modeled by human endothelial cells (HUVEC) and fibroblasts modeled by human mesenchymal stem cells (MSCs). The concentration ranges selected for each drug and investigational agent were based upon clinically achievable concentrations if the clinical Cmax of the agent was known.
Compounds. The drugs and investigational agents: inavolisib (NSC800729), alpelisib (NSC765974), duvelisib (NSC772469), copanlisib (NSC816437), ipatasertib (NSC767898), afuresertib (NSC778305), talazoparib (NSC767125), sapanisertib (NSC764658), selumetinib (NSC741078), tovorafenib (DAY101, NSC766906), vemurafenib (NSC761431), ravoxertinib (NSC781343), sotorasib (NSC818433), MRTX1133 (NSC 836407), abemaciclib (NSC 768073), palbociclib (NSC758247), venetoclax (NSC 766270), SY5609 (NSC837396), enzalutamide (NSC755605), and darolutamide (NSC825331), were obtained from the National Cancer Institute (NCI) Developmental Therapeutics Program Chemical Repository. The FDA-approved anticancer drug set is available from the NCI Developmental Therapeutics Program. […] The stock solutions were prepared in dimethyl sulfoxide (DMSO, Sigma-Aldrich, St. Louis, MO, cat. D2650) at 800-fold the tested concentration and stored at -70 degrees C prior to their use. All drugs and investigational agents were tested over a range starting from a high concentration at or near the clinical Cmax and decreasing in half-log increments. If the clinical Cmax for an agent had not been determined, the highest concentration tested was 10 microM.
Cell Culture. All cells were maintained in an incubator at 37 degrees C and 5% CO2 with 95% humidity. The PDC lines were cultured according to standard operating procedures established by the NCI PDMR (https://pdmr.cancer.gov/sops/default.htm). All PDCs were thawed and cultured in Matrigel-coated flasks prepared with a working solution of 1X Ham's F-12 nutrient mix, without supplementation (Invitrogen, Waltham, MA, cat. 11765054), 100 U/mL penicillin-streptomycin (Invitrogen, cat. 15140122), and 2.5% Matrigel (Corning Inc., Corning, NY, cat. 354248) for the first three passages. The 354836-022-R-J1-PDC, 475296-252-R-J1-PDC, and 997726-040-R-J2-PDC lines were cultured in 6A media, which includes advanced DMEM/F-12 (Thermo Fisher Scientific, cat. 12634028), 10 mM HEPES (Thermo Fisher Scientific, cat. 15630080), 1X GlutaMAX supplement (Thermo Fisher Scientific, cat. 35050061), 0.1 mg/mL primocin (InvivoGen, San Diego, CA, cat. ant-pm-2), 10% defined fetal bovine serum, heat inactivated (HyClone Laboratories Inc., Logan, UT, cat. SH30070.03HI), 50% L-WRN conditioned media (ATCC, cat. CRL-3276), 1.25 mM N-Acetyl-L-cysteine (Sigma-Aldrich, cat. A9165), 10 mM nicotinamide (Sigma-Aldrich, cat. N0636), 1X B-27 supplement (Thermo Fisher Scientific, cat. 17504044), 1X N-2 supplement (Thermo Fisher Scientific, cat. 17502048), and 10 microM Y-27632 dihydrochloride (Tocris Bioscience, Bristol, United Kingdom, cat. 1254). The 624824-186-R-J2-PDC line was cultured in 6C/Colon 1B media, which includes all 6A media components plus 50 ng/mL human EGF recombinant protein (Thermo Fisher Scientific, cat. PHG0311). […]

[1] = second compound 0.00316 µM, first compound 0.000316 µM
[2] = second compound 0.00316 µM, first compound 0.001 µM
[3] = second compound 0.00316 µM, first compound 0.00316 µM
[4] = second compound 0.00316 µM, first compound 0.01 µM
[5] = second compound 0.00316 µM, first compound 0.0316 µM
[6] = second compound 0.00316 µM, first compound 0.1 µM
[7] = second compound 0.01 µM, first compound 0.000316 µM
[8] = second compound 0.01 µM, first compound 0.001 µM
[9] = second compound 0.01 µM, first compound 0.00316 µM
[10] = second compound 0.01 µM, first compound 0.01 µM
[11] = second compound 0.01 µM, first compound 0.0316 µM
[12] = second compound 0.01 µM, first compound 0.1 µM
[13] = second compound 0.0316 µM, first compound 0.000316 µM
[14] = second compound 0.0316 µM, first compound 0.001 µM
[15] = second compound 0.0316 µM, first compound 0.00316 µM
[16] = second compound 0.0316 µM, first compound 0.01 µM
[17] = second compound 0.0316 µM, first compound 0.0316 µM
[18] = second compound 0.0316 µM, first compound 0.1 µM
[19] = second compound 0.1 µM, first compound 0.000316 µM
[20] = second compound 0.1 µM, first compound 0.001 µM
[21] = second compound 0.1 µM, first compound 0.00316 µM
[22] = second compound 0.1 µM, first compound 0.01 µM
[23] = second compound 0.1 µM, first compound 0.0316 µM
[24] = second compound 0.1 µM, first compound 0.1 µM
[25] = second compound 0.316 µM, first compound 0.000316 µM
[26] = second compound 0.316 µM, first compound 0.001 µM
[27] = second compound 0.316 µM, first compound 0.00316 µM
[28] = second compound 0.316 µM, first compound 0.01 µM
[29] = second compound 0.316 µM, first compound 0.0316 µM
[30] = second compound 0.316 µM, first compound 0.1 µM
[31] = second compound 1 µM, first compound 0.000316 µM
[32] = second compound 1 µM, first compound 0.001 µM
[33] = second compound 1 µM, first compound 0.00316 µM
[34] = second compound 1 µM, first compound 0.01 µM
[35] = second compound 1 µM, first compound 0.0316 µM
[36] = second compound 1 µM, first compound 0.1 µM
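Also: spheroids exposed to compounds for seven days before readout.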

CC(=O)c1c(C)c2cnc(Nc3ccc(N4CCNCC4)cn3)nc2n(C2CCCC2)c1=O + CC(Nc1ccc2c(c1)OCCn1cc(N3C(=O)OCC3C(F)F)nc1-2)C(N)=O gave an IC50 (second compound 0.00316 µM) of over 100 nM, an IC50 (second compound 0.01 µM) of over 100 nM and an IC50 (second compound 0.0316 µM) of 44.5 nM. For the same compound, the IC50 (second compound 0.1 µM) was under 0.316 nM, the IC50 (second compound 0.316 µM) was under 0.316 nM and the IC50 (second compound 1 µM) was under 0.316 nM. For the same compound, the viability, T/C [1] was 94.9%, the viability, T/C [2] was 84.1% and the viability, T/C [3] was 83.1%. The viability, T/C [4] was 81.9%, the viability, T/C [5] was 84.9% and the viability, T/C [6] was 55.8%. The viability, T/C [7] was 84.7%, the viability, T/C [8] was 80.7% and the viability, T/C [9] was 74.1%. The viability, T/C [10] was 76.4%, the viability, T/C [11] was 65.8% and the viability, T/C [12] was 53.9%. For the same compound, the viability, T/C [13] was 62%, the viability, T/C [14] was 62.1% and the viability, T/C [15] was 63.9%. For the same compound, the viability, T/C [16] was 53.9%, the viability, T/C [17] was 52.5% and the viability, T/C [18] was 45%. The viability, T/C [19] was 43.5%, the viability, T/C [20] was 45.4% and the viability, T/C [21] was 46.5%. The viability, T/C [22] was 48.9%, the viability, T/C [23] was 40.5% and the viability, T/C [24] was 29.5%. For the same compound, the viability, T/C [25] was 38.4%, the viability, T/C [26] was 32.7% and the viability, T/C [27] was 39.3%. The viability, T/C [28] was 30.1%, the viability, T/C [29] was 24.4% and the viability, T/C [30] was 22.9%. The viability, T/C [31] was 26.3%, the viability, T/C [32] was 33.2% and the viability, T/C [33] was 27.5%. It also gave a viability, T/C [34] of 28.1%, a viability, T/C [35] of 22.2% and a viability, T/C [36] of 15.3%.
Compound Cn1ncnc1[C@H]1c2n[nH]c(=O)c3cc(F)cc(c23)N[C@@H]1c1ccc(F)cc1 + COc1c(OCCCN2CCOCC2)ccc2c3n(c(=NC(=O)c4cnc(N)nc4)nc12)CCN3 has an IC50 (second compound 0.00316 µM) of over 100 nM, an IC50 (second compound 0.01 µM) of over 100 nM and an IC50 (second compound 0.0316 µM) of under 0.316 nM. It also gave an IC50 (second compound 0.1 µM) of under 0.316 nM, an IC50 (second compound 0.316 µM) of under 0.316 nM and an IC50 (second compound 1 µM) of under 0.316 nM. It also gave a viability, T/C [1] of 76.4%, a viability, T/C [2] of 77% and a viability, T/C [3] of 75.6%. The viability, T/C [4] was 82.9%, the viability, T/C [5] was 77.6% and the viability, T/C [6] was 70.5%. It also gave a viability, T/C [7] of 52%, a viability, T/C [8] of 56.6% and a viability, T/C [9] of 61.1%. For the same compound, the viability, T/C [10] was 54.8%, the viability, T/C [11] was 64.2% and the viability, T/C [12] was 58.1%. It also gave a viability, T/C [13] of 33.7%, a viability, T/C [14] of 35.3% and a viability, T/C [15] of 33.7%. It also gave a viability, T/C [16] of 37.1%, a viability, T/C [17] of 34.1% and a viability, T/C [18] of 36.5%. For the same compound, the viability, T/C [19] was 25.1%, the viability, T/C [20] was 22.2% and the viability, T/C [21] was 26.5%. It also gave a viability, T/C [22] of 23.1%, a viability, T/C [23] of 23.2% and a viability, T/C [24] of 22.6%. It also gave a viability, T/C [25] of 5.23%, a viability, T/C [26] of 5.9% and a viability, T/C [27] of 5.66%. The viability, T/C [28] was 5.44%, the viability, T/C [29] was 5.95% and the viability, T/C [30] was 5.09%. For the same compound, the viability, T/C [31] was 1.25%, the viability, T/C [32] was 1.22% and the viability, T/C [33] was 1.38%. The viability, T/C [34] was 1.16%, the viability, T/C [35] was 1.33% and the viability, T/C [36] was 1.04%.
